{
  "source": "patent EP0745599A2",
  "about": "“1-(3-Heterocyclylphenyl)-s-triazine-2,4,6-oxo or thiotrione herbicidal agents” (American Cyanamid Company, priority 1995, dated 1996)",
  "format_in_all_cases": "in vivo",
  "details_in_all_cases": "rated four to five weeks after treatment",
  "key": {"IPOMOEA SPP.": {"tested_on": "IPOMOEA SPP.", "assay": "Preemergence herbicidal evaluation, IPOSS (Morningglory Spp.)", "design": "key to IPOSS: visual rating scale 0-9 vs control", "text": "(§1) Results of herbicide evaluation are expressed on a rating scale (0-9). The scale is based upon a visual observation of plant stand, vigor, malformation, size, chlorosis and overall plant appearance as compared with a control.\n(§2) The preemergence herbicidal activity of the test compounds of the present invention is exemplified by the following tests in which the seeds of a variety of monocotyledonous and dicotyledonous plants are separately mixed with potting soil and planted on top of approximately one inch of soil in separate pint cups. After planting, the cups are sprayed with the selected aqueous acetone solution containing test compound in sufficient quantity to provide the equivalent of about 0.125 to 0.50 kg per hectare of test compound per cup. The treated cups are then placed on greenhouse benches, watered and cared for in accordance with conventional greenhouse procedures. From four to five weeks after treatment, the tests are terminated and each cup is examined and rated according to the rating system provided in Example 42."}, "[1]": {"tested_on": "AMBROSIA ARTEMISIIFOLIA, L.", "assay": "Preemergence herbicidal evaluation, AMBEL (Ragweed, Common)", "design": "key to AMBEL: visual rating scale 0-9 vs control", "text": "as §1, §2"}, "[2]": {"tested_on": "GLYCINE MAX(L)MERR. CV. WILLIAMS", "assay": "Preemergence herbicidal evaluation, GLXMAW (Soybean, Williams)", "design": "key to GLXMAW: visual rating scale 0-9 vs control", "text": "as §1, §2"}, "CASSIA OBTUSIFOLIA, L.": {"tested_on": "CASSIA OBTUSIFOLIA, L.", "assay": "Preemergence herbicidal evaluation, CASOB (Sicklepod)", "design": "key to CASOB: visual rating scale 0-9 vs control", "text": "as §1, §2"}, "[3]": {"tested_on": "SETARIA VIRIDIS, (L) BEAU", "assay": "Preemergence herbicidal evaluation, SETVI (Foxtail, Green)", "design": "key to SETVI: visual rating scale 0-9 vs control", "text": "as §1, §2"}, "ZEA MAYS L.": {"tested_on": "ZEA MAYS L.", "assay": "Preemergence herbicidal evaluation, ZEAMX (Corn, Field)", "design": "key to ZEAMX: visual rating scale 0-9 vs control", "text": "as §1, §2"}, "[4]": {"tested_on": "ECHINOCHLOA CRUS-GALLI, (L) BEAU", "assay": "Preemergence herbicidal evaluation, ECHCG (Barnyardgrass)", "design": "key to ECHCG: visual rating scale 0-9 vs control", "text": "as §1, §2"}, "[5]": {"tested_on": "TRITICUM AESTIVUM, CV. APOLLO", "assay": "Preemergence herbicidal evaluation, TRZAWO (Wheat, Winter, CV. APOLLO)", "design": "key to TRZAWO: visual rating scale 0-9 vs control", "text": "as §1, §2"}, "CHENOPODIUM ALBUM, L.": {"tested_on": "CHENOPODIUM ALBUM, L.", "assay": "Preemergence herbicidal evaluation, CHEAL (Lambsquarters, Common)", "design": "key to CHEAL: visual rating scale 0-9 vs control", "text": "as §1, §2"}, "GALIUM APARINE": {"tested_on": "GALIUM APARINE", "assay": "Preemergence herbicidal evaluation, GALAP (Galium)", "design": "key to GALAP: visual rating scale 0-9 vs control", "text": "as §1, §2"}, "[6]": {"tested_on": "ORYZA SATIVA, L. TEBONNET", "assay": "Preemergence herbicidal evaluation, ORYSAT (Rice, Tebonnet)", "design": "key to ORYSAT: visual rating scale 0-9 vs control", "text": "as §1, §2"}, "[7]": {"tested_on": "ABUTILON THEOPHRASTI, MEDIC.", "assay": "Preemergence herbicidal evaluation, ABUTH (Velvetleaf)", "design": "key to ABUTH: visual rating scale 0-9 vs control", "text": "as §1, §2"}},
  "data": [
    {"smiles": "Cn1c(=O)n(CC(=O)OC(C)(C)C)c(=O)n(-c2cc(N3C(=O)C4=C(CCCC4)C3=O)c(Cl)cc2Cl)c1=O", "note": "[Compound 7, Tert-butyl 3-[2,4-dichloro-5-(1-cyclohexene-1,2-dicarboximido)phenyl]tetrahydro-5-methyl-2,4,6-trioxo-s-triazine-1(2H)-acetate]", "values": [
      {"measurement": "Herbicide rating (0-9) IPOSS", "setting": "IPOMOEA SPP.; 0.125 kg/ha", "value": 0.0},
      {"measurement": "Herbicide rating (0-9) IPOSS", "setting": "IPOMOEA SPP.; 0.250 kg/ha", "value": 0.0},
      {"measurement": "Herbicide rating (0-9) IPOSS", "setting": "IPOMOEA SPP.; 0.500 kg/ha", "value": 0.0},
      {"measurement": "Herbicide rating (0-9) AMBEL", "setting": "[1]; 0.125 kg/ha", "value": 0.0},
      {"measurement": "Herbicide rating (0-9) AMBEL", "setting": "[1]; 0.250 kg/ha", "value": 0.0},
      {"measurement": "Herbicide rating (0-9) GLXMAW", "setting": "[2]; 0.125 kg/ha", "value": 0.0},
      {"measurement": "Herbicide rating (0-9) GLXMAW", "setting": "[2]; 0.250 kg/ha", "value": 0.0},
      {"measurement": "Herbicide rating (0-9) GLXMAW", "setting": "[2]; 0.500 kg/ha", "value": 0.0},
      {"measurement": "Herbicide rating (0-9) CASOB", "setting": "CASSIA OBTUSIFOLIA, L.; 0.125 kg/ha", "value": 0.0},
      {"measurement": "Herbicide rating (0-9) CASOB", "setting": "CASSIA OBTUSIFOLIA, L.; 0.250 kg/ha", "value": 0.0},
      {"measurement": "Herbicide rating (0-9) CASOB", "setting": "CASSIA OBTUSIFOLIA, L.; 0.500 kg/ha", "value": 0.0},
      {"measurement": "Herbicide rating (0-9) SETVI", "setting": "[3]; 0.125 kg/ha", "value": 0.0},
      {"measurement": "Herbicide rating (0-9) SETVI", "setting": "[3]; 0.250 kg/ha", "value": 0.0},
      {"measurement": "Herbicide rating (0-9) SETVI", "setting": "[3]; 0.500 kg/ha", "value": 0.0},
      {"measurement": "Herbicide rating (0-9) ZEAMX", "setting": "ZEA MAYS L.; 0.125 kg/ha", "value": 0.0},
      {"measurement": "Herbicide rating (0-9) ZEAMX", "setting": "ZEA MAYS L.; 0.250 kg/ha", "value": 0.0},
      {"measurement": "Herbicide rating (0-9) ZEAMX", "setting": "ZEA MAYS L.; 0.500 kg/ha", "value": 0.0},
      {"measurement": "Herbicide rating (0-9) ECHCG", "setting": "[4]; 0.125 kg/ha", "value": 0.0},
      {"measurement": "Herbicide rating (0-9) ECHCG", "setting": "[4]; 0.250 kg/ha", "value": 0.0},
      {"measurement": "Herbicide rating (0-9) ECHCG", "setting": "[4]; 0.500 kg/ha", "value": 0.0}
    ]},
    {"smiles": "C=CCn1c(=O)[nH]c(=O)n(-c2cc(N3C(=O)C4=C(CCCC4)C3=O)c(F)cc2Cl)c1=O", "note": "[Compound 18, N-[5-(3-Allylhexahydro-2,4,6-trioxo-s-triazin-1-yl)-4-chloro-2-fluorophenyl]-1-cyclohexene-1,2-dicarboximide]", "values": [
      {"measurement": "IPOSS", "setting": "IPOMOEA SPP.; Rate 0.125 kg/ha", "value": 0.0},
      {"measurement": "IPOSS", "setting": "IPOMOEA SPP.; Rate 0.250 kg/ha", "value": 0.0},
      {"measurement": "IPOSS", "setting": "IPOMOEA SPP.; Rate 0.500 kg/ha", "value": 4.0},
      {"measurement": "AMBEL", "setting": "[1]; Rate 0.125 kg/ha", "value": 0.0},
      {"measurement": "AMBEL", "setting": "[1]; Rate 0.250 kg/ha", "value": 0.0},
      {"measurement": "AMBEL", "setting": "[1]; Rate 0.500 kg/ha", "value": 0.0},
      {"measurement": "TRZAWO", "setting": "[5]; Rate 0.125 kg/ha", "value": 0.0},
      {"measurement": "TRZAWO", "setting": "[5]; Rate 0.250 kg/ha", "value": 0.0},
      {"measurement": "TRZAWO", "setting": "[5]; Rate 0.500 kg/ha", "value": 0.0},
      {"measurement": "GLXMAW", "setting": "[2]; Rate 0.125 kg/ha", "value": 0.0},
      {"measurement": "GLXMAW", "setting": "[2]; Rate 0.250 kg/ha", "value": 0.0},
      {"measurement": "GLXMAW", "setting": "[2]; Rate 0.500 kg/ha", "value": 0.0},
      {"measurement": "CHEAL", "setting": "CHENOPODIUM ALBUM, L.; Rate 0.125 kg/ha", "value": 0.0},
      {"measurement": "CHEAL", "setting": "CHENOPODIUM ALBUM, L.; Rate 0.250 kg/ha", "value": 5.0},
      {"measurement": "CHEAL", "setting": "CHENOPODIUM ALBUM, L.; Rate 0.500 kg/ha", "value": 7.0},
      {"measurement": "GALAP", "setting": "GALIUM APARINE; Rate 0.125 kg/ha", "value": 0.0},
      {"measurement": "GALAP", "setting": "GALIUM APARINE; Rate 0.250 kg/ha", "value": 0.0},
      {"measurement": "GALAP", "setting": "GALIUM APARINE; Rate 0.500 kg/ha", "value": 4.0},
      {"measurement": "CASOB", "setting": "CASSIA OBTUSIFOLIA, L.; Rate 0.125 kg/ha", "value": 0.0},
      {"measurement": "CASOB", "setting": "CASSIA OBTUSIFOLIA, L.; Rate 0.250 kg/ha", "value": 0.0},
      {"measurement": "CASOB", "setting": "CASSIA OBTUSIFOLIA, L.; Rate 0.500 kg/ha", "value": 0.0},
      {"measurement": "SETVI", "setting": "[3]; Rate 0.125 kg/ha", "value": 0.0},
      {"measurement": "SETVI", "setting": "[3]; Rate 0.250 kg/ha", "value": 0.0},
      {"measurement": "SETVI", "setting": "[3]; Rate 0.500 kg/ha", "value": 0.0},
      {"measurement": "ORYSAT", "setting": "[6]; Rate 0.125 kg/ha", "value": 0.0},
      {"measurement": "ORYSAT", "setting": "[6]; Rate 0.250 kg/ha", "value": 0.0},
      {"measurement": "ORYSAT", "setting": "[6]; Rate 0.500 kg/ha", "value": 0.0},
      {"measurement": "ZEAMX", "setting": "ZEA MAYS L.; Rate 0.125 kg/ha", "value": 0.0},
      {"measurement": "ZEAMX", "setting": "ZEA MAYS L.; Rate 0.250 kg/ha", "value": 0.0},
      {"measurement": "ZEAMX", "setting": "ZEA MAYS L.; Rate 0.500 kg/ha", "value": 0.0},
      {"measurement": "ECHCG", "setting": "[4]; Rate 0.125 kg/ha", "value": 0.0},
      {"measurement": "ECHCG", "setting": "[4]; Rate 0.250 kg/ha", "value": 0.0},
      {"measurement": "ECHCG", "setting": "[4]; Rate 0.500 kg/ha", "value": 0.0},
      {"measurement": "ABUTH", "setting": "[7]; Rate 0.125 kg/ha", "value": 0.0},
      {"measurement": "ABUTH", "setting": "[7]; Rate 0.250 kg/ha", "value": 0.0},
      {"measurement": "ABUTH", "setting": "[7]; Rate 0.500 kg/ha", "value": 0.0}
    ]},
    {"smiles": "COC(=O)Cn1c(=O)n(C)c(=O)n(-c2cc(N3C(=O)C4=C(CCCC4)C3=O)c(Cl)cc2Cl)c1=O", "note": "[Compound 6, Methyl 3-[2,4-dichloro-5-(1-cyclohexene-1,2-dicarboximido)phenyl]tetrahydro-5-methyl-2,4,6-trioxo-s-triazine-1(2H)-acetate]", "values": [
      {"measurement": "Herbicide rating (0-9) IPOSS", "setting": "IPOMOEA SPP.; 0.125 kg/ha", "value": 4.0},
      {"measurement": "Herbicide rating (0-9) IPOSS", "setting": "IPOMOEA SPP.; 0.250 kg/ha", "value": 4.0},
      {"measurement": "Herbicide rating (0-9) IPOSS", "setting": "IPOMOEA SPP.; 0.500 kg/ha", "value": 4.0},
      {"measurement": "Herbicide rating (0-9) TRZAWO", "setting": "[5]; 0.125 kg/ha", "value": 2.0},
      {"measurement": "Herbicide rating (0-9) TRZAWO", "setting": "[5]; 0.250 kg/ha", "value": 2.0},
      {"measurement": "Herbicide rating (0-9) TRZAWO", "setting": "[5]; 0.500 kg/ha", "value": 2.0},
      {"measurement": "Herbicide rating (0-9) ORYSAT", "setting": "[6]; 0.125 kg/ha", "value": 4.0},
      {"measurement": "Herbicide rating (0-9) ORYSAT", "setting": "[6]; 0.250 kg/ha", "value": 4.0},
      {"measurement": "Herbicide rating (0-9) ORYSAT", "setting": "[6]; 0.500 kg/ha", "value": 4.0},
      {"measurement": "Herbicide rating (0-9) ECHCG", "setting": "[4]; 0.125 kg/ha", "value": 0.0},
      {"measurement": "Herbicide rating (0-9) ECHCG", "setting": "[4]; 0.250 kg/ha", "value": 0.0},
      {"measurement": "Herbicide rating (0-9) ECHCG", "setting": "[4]; 0.500 kg/ha", "value": 0.0}
    ]}
  ]
}
